Laboratory results: US7160874B2, “Phenylalanine derivatives” (Ajinomoto Co., Inc., priority 1999, dated 2007)
pIC50: −log10 of the molar value.

Columns and labels:
[1] = target: T1, integrin α4β1 (Homo sapiens, UniProt P05556+P13612); experiment: VCAM antagonist activity (VCAM-1/α4β1 binding assay); assay type: cell-based; conditions: Jurkat cells binding to VCAM-1; read-out: VCAM antagonistic activity (IC50) α4β1
T1 construct: cell strain Jurkat (ATCC TIB-152) of human T cells, known to express integrin α4β1; host or cells: Jurkat (human T cell line)
T1 sequence (P05556 21-798, one chain of several): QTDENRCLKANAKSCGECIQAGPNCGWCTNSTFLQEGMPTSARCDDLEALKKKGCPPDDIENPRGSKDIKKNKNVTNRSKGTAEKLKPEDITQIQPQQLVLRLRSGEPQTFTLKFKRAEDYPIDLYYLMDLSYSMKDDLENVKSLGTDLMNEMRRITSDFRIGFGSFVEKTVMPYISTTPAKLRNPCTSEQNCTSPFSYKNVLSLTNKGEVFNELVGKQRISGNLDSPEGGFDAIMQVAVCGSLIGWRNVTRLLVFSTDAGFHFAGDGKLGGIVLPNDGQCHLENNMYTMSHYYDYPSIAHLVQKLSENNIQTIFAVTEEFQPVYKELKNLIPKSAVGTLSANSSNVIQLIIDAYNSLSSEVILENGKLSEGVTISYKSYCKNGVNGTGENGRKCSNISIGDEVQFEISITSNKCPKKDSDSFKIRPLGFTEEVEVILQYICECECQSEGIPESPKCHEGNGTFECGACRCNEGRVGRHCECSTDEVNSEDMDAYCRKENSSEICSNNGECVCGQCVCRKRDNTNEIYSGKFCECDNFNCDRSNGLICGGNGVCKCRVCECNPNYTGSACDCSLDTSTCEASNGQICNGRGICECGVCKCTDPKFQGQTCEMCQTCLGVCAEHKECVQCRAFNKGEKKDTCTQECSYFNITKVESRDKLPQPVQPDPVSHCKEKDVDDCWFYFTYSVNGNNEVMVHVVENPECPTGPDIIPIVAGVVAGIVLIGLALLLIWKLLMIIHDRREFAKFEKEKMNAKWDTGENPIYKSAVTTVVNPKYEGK
Method in brief: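 Plates coated overnight at 4° C with recombinant human VCAM-1 (500 ng/ml, pH 9.6) and blocked. Calcein-AM-labelled Jurkat cells (α4β1) added with compound in HEPES/DMEM/0.1% BSA, 30 min at room temperature; unbound cells shaken off, bound fluorescence read at 485/535 nm. IC50 from binding relative to compound-free wells.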

[2] = target: T2, integrin α4β7 (Homo sapiens, UniProt P13612+P26010); experiment: VCAM antagonistic activity (VCAM-1/α4β7 binding assay); assay type: cell-based; conditions: RPMI-8866 cells binding to VCAM-1; read-out: VCAM antagonistic activity (IC50) α4β7
T2 construct: lymphoma cell strain RPMI-8866 of human B cells, known to express integrin α4β7; endogenous in cells; host or cells: RPMI-8866 (human B lymphoma cell line)
T2 sequence (P13612 34-1032): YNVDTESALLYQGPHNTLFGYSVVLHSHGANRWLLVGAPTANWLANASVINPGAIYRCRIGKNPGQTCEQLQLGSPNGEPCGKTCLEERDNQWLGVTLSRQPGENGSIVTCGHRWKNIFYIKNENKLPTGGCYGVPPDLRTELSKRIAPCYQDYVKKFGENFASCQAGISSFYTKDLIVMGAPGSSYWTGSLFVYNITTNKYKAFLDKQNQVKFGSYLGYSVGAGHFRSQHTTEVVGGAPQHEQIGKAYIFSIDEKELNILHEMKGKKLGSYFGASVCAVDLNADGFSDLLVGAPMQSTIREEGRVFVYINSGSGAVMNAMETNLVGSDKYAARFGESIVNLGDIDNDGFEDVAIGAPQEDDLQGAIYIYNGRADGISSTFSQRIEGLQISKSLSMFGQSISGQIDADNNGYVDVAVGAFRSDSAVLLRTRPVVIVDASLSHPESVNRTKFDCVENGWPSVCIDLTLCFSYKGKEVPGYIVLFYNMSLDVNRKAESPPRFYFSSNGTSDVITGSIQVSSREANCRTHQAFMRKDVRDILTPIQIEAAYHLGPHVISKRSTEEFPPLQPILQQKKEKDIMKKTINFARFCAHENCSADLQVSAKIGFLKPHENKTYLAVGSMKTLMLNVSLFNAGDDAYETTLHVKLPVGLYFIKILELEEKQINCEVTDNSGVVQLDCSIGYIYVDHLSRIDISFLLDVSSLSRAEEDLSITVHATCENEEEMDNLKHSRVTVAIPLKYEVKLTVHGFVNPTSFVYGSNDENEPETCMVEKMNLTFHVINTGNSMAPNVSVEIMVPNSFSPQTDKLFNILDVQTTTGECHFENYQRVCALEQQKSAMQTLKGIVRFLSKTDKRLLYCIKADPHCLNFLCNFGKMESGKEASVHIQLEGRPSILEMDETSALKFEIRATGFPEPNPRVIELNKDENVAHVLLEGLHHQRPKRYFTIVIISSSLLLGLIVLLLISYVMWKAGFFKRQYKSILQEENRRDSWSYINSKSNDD
T2 sequence (P26010 20-798): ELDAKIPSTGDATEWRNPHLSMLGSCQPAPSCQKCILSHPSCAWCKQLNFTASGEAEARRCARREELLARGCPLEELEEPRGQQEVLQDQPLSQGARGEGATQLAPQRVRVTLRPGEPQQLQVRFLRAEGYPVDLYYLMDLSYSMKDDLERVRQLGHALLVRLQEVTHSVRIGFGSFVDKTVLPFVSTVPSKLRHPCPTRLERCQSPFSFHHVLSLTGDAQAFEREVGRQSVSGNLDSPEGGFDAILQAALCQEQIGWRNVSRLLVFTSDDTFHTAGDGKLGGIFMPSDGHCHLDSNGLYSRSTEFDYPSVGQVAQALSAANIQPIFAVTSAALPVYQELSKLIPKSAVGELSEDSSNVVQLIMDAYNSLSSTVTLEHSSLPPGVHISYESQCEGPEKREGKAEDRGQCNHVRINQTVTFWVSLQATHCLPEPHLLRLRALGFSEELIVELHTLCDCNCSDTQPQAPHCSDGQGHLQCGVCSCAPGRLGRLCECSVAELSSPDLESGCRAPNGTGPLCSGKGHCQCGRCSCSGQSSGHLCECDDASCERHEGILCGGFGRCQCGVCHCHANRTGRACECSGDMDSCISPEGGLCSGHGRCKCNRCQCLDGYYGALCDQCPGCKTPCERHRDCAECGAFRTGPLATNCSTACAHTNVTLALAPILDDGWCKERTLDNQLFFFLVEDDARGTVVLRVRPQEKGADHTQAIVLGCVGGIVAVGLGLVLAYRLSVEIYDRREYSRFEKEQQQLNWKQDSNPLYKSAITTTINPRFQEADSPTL
Method in brief: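 Calcein-AM-labelled human B-lymphoma RPMI-8866 cells bound to plate-coated recombinant human VCAM-1 in HEPES/DMEM/0.1% BSA with 4 mM MnCl2, with compound, 30 min at room temperature. Unbound cells removed by shaking; bound-cell fluorescence (ex 485/em 535 nm) versus compound-free wells gave IC50, binned.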

Row | SMILES | pIC50 [1] | pIC50 [2]
1 | CC1(C)CC2CC(C)(CN2C(=O)C2(C(=O)NC(Cc3ccc(OCc4c(Cl)cccc4Cl)cc3)C(=O)O)CCOCC2)C1 (stereo not drawn) [Example 472] | 5.00 to 5.70 | 5.70 to 7.00
2 | CCC(CC)(C(=O)N[C@@H](Cc1ccc(NC(=O)c2nc(SC)ncc2Br)cc1)C(=O)O)C(=O)N1CCCC1 [Example 477] | 7.00 to 7.70 | > 7.70
3 | CCC(CC)(C(=O)N[C@@H](Cc1ccc(NC(=O)c2nc([S+](C)[O-])ncc2Cl)cc1)C(=O)O)C(=O)N1CCCC1 (stereo partly drawn) [Example 478, N-[2-(pyrrolidine-1-ylcarbonyl)-2-ethyl-butanoyl]-4-({[5-chloro-2-(methylsulfinyl)pyrimidine-4-yl]carbonyl}amino)-L-phenyl-alanine] | 7.00 to 7.70 | > 7.70
4 | CCC(CC)(C(=O)N[C@@H](Cc1ccc(NC(=O)c2nc(S(C)(=O)=O)ncc2Cl)cc1)C(=O)O)C(=O)N1CCCC1 [Example 479, N-[2-(pyrrolidine-1-ylcarbonyl)-2-ethyl-butanoyl)-4-({[5-chloro-2-(methylsulfonyl)pyrimidine-4-yl]carbonyl}-amino)-L-phenyl-alanine] | 7.00 to 7.70 | > 7.70

More lines, now with the values ahead:

Row | pIC50 [1] | pIC50 [2] | SMILES
5 | 7.00 to 7.70 | > 7.70 | CCC(CC)(C(=O)N[C@@H](Cc1ccc(NC(=O)c2nc(NCc3ccc(OC)cc3)ncc2Cl)cc1)C(=O)O)C(=O)N1CCCC1 [Example 480, N-[2-(pyrrolidine-1-ylcarbonyl)-2-ethyl-butanoyl]-4-[({5-chloro-2-[(4-methoxybenzyl)amino]pyrimidine-4-yl}carbonyl)amino]-L-phenylalanine]
6 | 7.00 to 7.70 | > 7.70 | CCC(CC)(C(=O)N[C@@H](Cc1ccc(NC(=O)c2nc(N3CCCC3)ncc2Cl)cc1)C(=O)O)C(=O)N1CCCC1 [Example 481]
7 | 5.70 to 7.00 | > 7.70 | CCC(CC)(C(=O)N[C@@H](Cc1ccc(NC(=O)c2nc(N3CCCCC3)ncc2Cl)cc1)C(=O)O)C(=O)N1CCCC1 [Example 482]
8 | 7.00 to 7.70 | > 7.70 | CCCNc1ncc(Cl)c(C(=O)Nc2ccc(C[C@H](NC(=O)C(CC)(CC)C(=O)N3CCCC3)C(=O)O)cc2)n1 [Example 483]
9 | 7.00 to 7.70 | > 7.70 | CCC(CC)(C(=O)N[C@@H](Cc1ccc(NC(=O)c2nc(NC)ncc2Cl)cc1)C(=O)O)C(=O)N1CCCC1 [Example 484]
